Data published in the supplement of paper PMC11208160.
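Note: IS621 recombinase and bridge RNA in Escherichia coli cells.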

Test: recombinant barcode read abundance after kanamycin selection (control-corrected) (log10(CPM+1)); higher = more efficient recombination; sequences stand for … in AGTGCAGAGAAAATCGGCCAGTTTTCTCTGCCTGCAGTCCGCATGCCGT…AGATTTATGCAGCGGACTGCCTTTCTCCCAAAGTGATAAACCGGACAGTATCATGGACCGGTTTTCCCGGTAATCCGTATTTGCAAGGTTGGTTTCACT; site = the 11-nt target
How it was run: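 IS621 bridge RNA target-binding loops were paired with targets in a pooled library tested in E. coli. After co-electroporation with a donor plasmid, cells were plated in two replicates on chloramphenicol/ampicillin LB agar (control) and on chloramphenicol/ampicillin/kanamycin carrying 0.1 mM IPTG. Barcodes at recombinant junctions were counted as counts per million, averaged and control-corrected to give recombination efficiency. Values are log10(CPM+1).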
In the case of “GAGCCGACTTGGGTTCTAACCTGTTGCAG (site GAGCCGACTCT)”, the “recombinant barcode read abundance (log10)” value is reported as 2.25.
In the case of “GAGCCGACTTGGGTTCTAACCTGTTGCAG (site TAGCCGGCTCT)”, the “recombinant barcode read abundance (log10)” value is reported as 0.0779.
For “GAGCCGACTTGGGTTCTAACCTGTTGCCT (site GAGCAGACTAG)”, the “recombinant barcode read abundance (log10)” value was 0.288.
For “GAGCCGACTTGGGTTCTAACCTGTTGCCT (site GAGCCGACTAG)”, the “recombinant barcode read abundance (log10)” value was 1.56.
For “GAGCCGACTTGGGTTCTAACCTGTTGCCT (site GAGCGGACTAG)”, the “recombinant barcode read abundance (log10)” value was 0.274.
In the case of “GAGCCGACTTGGGTTCTAACCTGTTGCCT (site GAGCTGACTAG)”, the “recombinant barcode read abundance (log10)” value is reported as 0.0365.
With “GAGCCGCCTTGGGTTCTAACCTGTTGCAT (site GAGCCGCCTAT)” the “recombinant barcode read abundance (log10)” value was 1.48.
For “GAGCCGCCTTGGGTTCTAACCTGTTGCAT (site GGGACGCCTAT)”, the “recombinant barcode read abundance (log10)” value was 0.0756.
With “GAGCCGCCTTGGGTTCTAACCTGTTGCCG (site GAGCCACCTCA)” the “recombinant barcode read abundance (log10)” value was 0.118.
With “GAGCCGCCTTGGGTTCTAACCTGTTGCCG (site GAGCCGCCTCG)” the “recombinant barcode read abundance (log10)” value was 1.04.
For “GAGCCTACTTGGGTTCTAACCTGTTGCCT (site GAACCTACTCG)”, the “recombinant barcode read abundance (log10)” value was 0.0224.
With “GAGCCTACTTGGGTTCTAACCTGTTGCCT (site GAGCCTACTAG)” the “recombinant barcode read abundance (log10)” value was 1.29.
With “GAGCCTACTTGGGTTCTAACCTGTTGCTA (site AAGCCTACTTA)” the “recombinant barcode read abundance (log10)” value was 0.25.
For “GAGCCTACTTGGGTTCTAACCTGTTGCTA (site GAGCCTACTTA)”, the “recombinant barcode read abundance (log10)” value was 1.02.
For “GAGCGAGCTTGGGTTCTAACCTGTTGCTA (site GAGCGAGCTTA)”, the “recombinant barcode read abundance (log10)” value was 1.31.
With “GAGCGAGCTTGGGTTCTAACCTGTTGCTA (site GAGCGGACTTA)” the “recombinant barcode read abundance (log10)” value was 0.267.
For “GAGCGCACTTGGGTTCTAACCTGTTGCGG (site GAGCGCACTCC)”, the “recombinant barcode read abundance (log10)” value was 2.13.
With “GAGCGCACTTGGGTTCTAACCTGTTGCGG (site GAGCGCACTCT)” the “recombinant barcode read abundance (log10)” value was 1.51.
For “GAGCGCTCTTGGGTTCTAACCTGTTGCTA (site GAGCGCTCTAA)”, the “recombinant barcode read abundance (log10)” value was 0.167.
For “GAGCGCTCTTGGGTTCTAACCTGTTGCTA (site GAGCGCTCTCA)”, the “recombinant barcode read abundance (log10)” value was 0.223.
With “GAGCGCTCTTGGGTTCTAACCTGTTGCTA (site GAGCGCTCTGA)” the “recombinant barcode read abundance (log10)” value was 0.12.
In the case of “GAGCGCTCTTGGGTTCTAACCTGTTGCTA (site GAGCGCTCTTA)”, the “recombinant barcode read abundance (log10)” value is reported as 0.636.
For “GAGCGCTCTTGGGTTCTAACCTGTTGCTC (site GAGCGCTCTAA)”, the “recombinant barcode read abundance (log10)” value was 0.525.
For “GAGCGCTCTTGGGTTCTAACCTGTTGCTC (site GAGCGCTCTCA)”, the “recombinant barcode read abundance (log10)” value was 0.0599.
For “GAGCGCTCTTGGGTTCTAACCTGTTGCTC (site GAGCGCTCTGA)”, the “recombinant barcode read abundance (log10)” value was 1.18.
For “GAGCGCTCTTGGGTTCTAACCTGTTGCTC (site GAGCGCTCTTA)”, the “recombinant barcode read abundance (log10)” value was 0.381.
For “GAGCGTACTTGGGTTCTAACCTGTTGCAT (site GAGAGTACTAT)”, the “recombinant barcode read abundance (log10)” value was 0.257.
With “GAGCGTACTTGGGTTCTAACCTGTTGCAT (site GAGCGTACTAT)” the “recombinant barcode read abundance (log10)” value was 1.09.
With “GAGCGTACTTGGGTTCTAACCTGTTGCAT (site GAGGGTACTAT)” the “recombinant barcode read abundance (log10)” value was 0.0723.
With “GAGCGTACTTGGGTTCTAACCTGTTGCAT (site GAGTGTACTAT)” the “recombinant barcode read abundance (log10)” value was 0.0144.
In the case of “GAGCGTCCTTGGGTTCTAACCTGTTGCTA (site AGCGAATCTCG)”, the “recombinant barcode read abundance (log10)” value is reported as 0.0924.
With “GAGCGTCCTTGGGTTCTAACCTGTTGCTA (site GAGCGTCCTTA)” the “recombinant barcode read abundance (log10)” value was 0.94.
For “GAGCTACCTTGGGTTCTAACCTGTTGCCT (site GAGCTACCTAG)”, the “recombinant barcode read abundance (log10)” value was 1.46.
With “GAGCTACCTTGGGTTCTAACCTGTTGCCT (site GAGCTACCTCG)” the “recombinant barcode read abundance (log10)” value was 0.549.
In the case of “GAGCTACCTTGGGTTCTAACCTGTTGCCT (site GAGCTACCTGG)”, the “recombinant barcode read abundance (log10)” value is reported as 0.172.
In the case of “GAGCTACCTTGGGTTCTAACCTGTTGCCT (site GAGCTACCTTG)”, the “recombinant barcode read abundance (log10)” value is reported as 0.0234.
In the case of “GAGCTGCCTTGGGTTCTAACCTGTTGCTT (site AAGCTGCCTAG)”, the “recombinant barcode read abundance (log10)” value is reported as 0.25.
In the case of “GAGCTGCCTTGGGTTCTAACCTGTTGCTT (site GAGCTGCCTAA)”, the “recombinant barcode read abundance (log10)” value is reported as 1.3.
For “GAGGAGCCTTGGGTTCTAACCTGTTGCGT (site GAGGAGCCTAC)”, the “recombinant barcode read abundance (log10)” value was 2.62.
With “GAGGAGCCTTGGGTTCTAACCTGTTGCGT (site TAGGAACCTAC)” the “recombinant barcode read abundance (log10)” value was 1.34.
For “GAGGCGGCTTGGGTTCTAACCTGTTGCTT (site GAGACGGCTAA)”, the “recombinant barcode read abundance (log10)” value was 0.162.
In the case of “GAGGCGGCTTGGGTTCTAACCTGTTGCTT (site GAGCCGGCTAA)”, the “recombinant barcode read abundance (log10)” value is reported as 0.149.
With “GAGGCGGCTTGGGTTCTAACCTGTTGCTT (site GAGGCGGCTAA)” the “recombinant barcode read abundance (log10)” value was 1.04.
In the case of “GAGGCGGCTTGGGTTCTAACCTGTTGCTT (site GAGTCGGCTAA)”, the “recombinant barcode read abundance (log10)” value is reported as 0.0862.
For “GAGGCTCCTTGGGTTCTAACCTGTTGCCA (site GAGGCTCCTAG)”, the “recombinant barcode read abundance (log10)” value was 2.19.
In the case of “GAGGCTCCTTGGGTTCTAACCTGTTGCCA (site GAGGCTCCTCG)”, the “recombinant barcode read abundance (log10)” value is reported as 0.0289.
For “GAGGCTCCTTGGGTTCTAACCTGTTGCCA (site GAGGCTCCTGG)”, the “recombinant barcode read abundance (log10)” value was 0.164.
In the case of “GAGGCTCCTTGGGTTCTAACCTGTTGCCA (site GAGGCTCCTTG)”, the “recombinant barcode read abundance (log10)” value is reported as 0.365.
In the case of “GAGGCTCCTTGGGTTCTAACCTGTTGCCT (site GAGGCTCCTAG)”, the “recombinant barcode read abundance (log10)” value is reported as 0.744.
In the case of “GAGGCTCCTTGGGTTCTAACCTGTTGCCT (site GAGGCTCCTCG)”, the “recombinant barcode read abundance (log10)” value is reported as 0.0603.
In the case of “GAGGCTCCTTGGGTTCTAACCTGTTGCCT (site GAGGCTCCTGG)”, the “recombinant barcode read abundance (log10)” value is reported as 0.137.
For “GAGGCTCCTTGGGTTCTAACCTGTTGCCT (site GAGGCTCCTTG)”, the “recombinant barcode read abundance (log10)” value was 0.201.
In the case of “GAGGGCCCTTGGGTTCTAACCTGTTGCCG (site GAGGGCCCTCA)”, the “recombinant barcode read abundance (log10)” value is reported as 0.29.
For “GAGGGCCCTTGGGTTCTAACCTGTTGCCG (site GAGGGCCCTCC)”, the “recombinant barcode read abundance (log10)” value was 1.2.
In the case of “GAGGGCCCTTGGGTTCTAACCTGTTGCCG (site GAGGGCCCTCG)”, the “recombinant barcode read abundance (log10)” value is reported as 1.96.
For “GAGGGCCCTTGGGTTCTAACCTGTTGCCG (site GAGGGCCCTCT)”, the “recombinant barcode read abundance (log10)” value was 0.759.
For “GAGGGCCCTTGGGTTCTAACCTGTTGCGG (site GAGGGCCCTCA)”, the “recombinant barcode read abundance (log10)” value was 1.94.
In the case of “GAGGGCCCTTGGGTTCTAACCTGTTGCGG (site GAGGGCCCTCC)”, the “recombinant barcode read abundance (log10)” value is reported as 3.11.
In the case of “GAGGGCCCTTGGGTTCTAACCTGTTGCGG (site GAGGGCCCTCG)”, the “recombinant barcode read abundance (log10)” value is reported as 0.81.
